Assay results published in PubChem BioAssay AID2060495 (Molecular Pharmacology Branch, DTP, NCI, 2025).

System: 521955-158-R2-J5-PDC complex spheroid viability
Assay: Anticancer human tumor 521955-158-R2-J5-PDC patient-derived pancreatic carcinoma cell line growth inhibition [GQUAD]
Conditions: for IC50: curve of first compound; for viability, T/C: stronger effect = lower value; active means viability on the fitted dose curve at most 10% of control; inactive means the rest
Summary of the method: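 Tumor cells were grown as complex spheroids with HUVEC endothelial cells and mesenchymal stem cells as stroma. G-quadruplex stabilizers were combined with targeted agents over half-log dilutions from near the clinical Cmax, or from 10 microM.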

[1] = second compound 0.0316 µM, first compound 0.0316 µM
[2] = second compound 0.0316 µM, first compound 0.1 µM
[3] = second compound 0.0316 µM, first compound 0.316 µM
[4] = second compound 0.0316 µM, first compound 1 µM
[5] = second compound 0.0316 µM, first compound 3.16 µM
[6] = second compound 0.0316 µM, first compound 10 µM
[7] = second compound 0.1 µM, first compound 0.0316 µM
[8] = second compound 0.1 µM, first compound 0.1 µM
[9] = second compound 0.1 µM, first compound 0.316 µM
[10] = second compound 0.1 µM, first compound 1 µM
[11] = second compound 0.1 µM, first compound 3.16 µM
[12] = second compound 0.1 µM, first compound 10 µM
[13] = second compound 0.316 µM, first compound 0.0316 µM
[14] = second compound 0.316 µM, first compound 0.1 µM
[15] = second compound 0.316 µM, first compound 0.316 µM
[16] = second compound 0.316 µM, first compound 1 µM
[17] = second compound 0.316 µM, first compound 3.16 µM
[18] = second compound 0.316 µM, first compound 10 µM
[19] = second compound 1 µM, first compound 0.0316 µM
[20] = second compound 1 µM, first compound 0.1 µM
[21] = second compound 1 µM, first compound 0.316 µM
[22] = second compound 1 µM, first compound 1 µM
[23] = second compound 1 µM, first compound 3.16 µM
[24] = second compound 1 µM, first compound 10 µM
[25] = second compound 3.16 µM, first compound 0.0316 µM
[26] = second compound 3.16 µM, first compound 0.1 µM
[27] = second compound 3.16 µM, first compound 0.316 µM
[28] = second compound 3.16 µM, first compound 1 µM
[29] = second compound 3.16 µM, first compound 3.16 µM
[30] = second compound 3.16 µM, first compound 10 µM
[31] = second compound 10 µM, first compound 0.0316 µM
[32] = second compound 10 µM, first compound 0.1 µM
[33] = second compound 10 µM, first compound 0.316 µM
[34] = second compound 10 µM, first compound 1 µM
[35] = second compound 10 µM, first compound 3.16 µM
[36] = second compound 10 µM, first compound 10 µM
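Further: spheroids exposed to agents for one week before reading.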
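Wherever viability, T/C is given: 100% = DMSO vehicle control viability.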

COc1cc(C2c3cc4c(cc3C(OC3OC5COC(C)OC5C(O)C3O)C3COC(=O)C23)OCO4)cc(OC)c1O (stereo unspecified) + Cc1cnc(CNC(=O)c2c(=O)c3ccc(N4CCCN(C)CC4)nc3n3c2sc2ccccc23)cn1
340 nM: IC50 (second compound 0.1 µM)
active: viability, T/C [6] 9.69% | viability, T/C [24] 10.2% | viability, T/C [30] 8.61%
241 nM: IC50 (second compound 0.0316 µM)
< 31.6 nM: IC50 (second compound 0.316 µM) | IC50 (second compound 1 µM) | IC50 (second compound 3.16 µM) | IC50 (second compound 10 µM)
inactive: viability, T/C [1] 84.4% | viability, T/C [2] 70.8% | viability, T/C [3] 42.8% | viability, T/C [4] 23.2% | viability, T/C [5] 12.1% | viability, T/C [7] 59.2% | viability, T/C [8] 55.3% | viability, T/C [9] 49.3% | viability, T/C [10] 37.8% | viability, T/C [11] 16% | viability, T/C [12] 11% | viability, T/C [13] 45.2% | viability, T/C [14] 42.2% | viability, T/C [15] 36.5% | viability, T/C [16] 19.8% | viability, T/C [17] 14% | viability, T/C [18] 12.1% | viability, T/C [19] 23.2% | viability, T/C [20] 28.4% | viability, T/C [21] 19.2% | viability, T/C [22] 17.4% | viability, T/C [23] 10.3% | viability, T/C [25] 19.2% | viability, T/C [26] 18% | viability, T/C [27] 19.6% | viability, T/C [28] 17% | viability, T/C [29] 6.27% | viability, T/C [31] 15.6% | viability, T/C [32] 17.8% | viability, T/C [33] 18.8% | viability, T/C [34] 16.7% | viability, T/C [35] 10.2% | viability, T/C [36] 8.93%

Nc1ccn(C2OC(CO)C(O)C2(F)F)c(=O)n1 (stereo unspecified) + CN(C)c1ccc(Nc2c3ccc(NC(=O)CCN4CCCC4)cc3nc3cc(NC(=O)CCN4CCCC4)ccc23)cc1
394 nM: IC50 (second compound 1 µM)
774 nM: IC50 (second compound 0.0316 µM)
83 nM: IC50 (second compound 10 µM)
434 nM: IC50 (second compound 0.316 µM)
inactive: viability, T/C [1] 76.5% | viability, T/C [2] 73.5% | viability, T/C [3] 66% | viability, T/C [4] 45.1% | viability, T/C [5] 24.1% | viability, T/C [6] 12.6% | viability, T/C [7] 76.6% | viability, T/C [8] 76.5% | viability, T/C [9] 54.5% | viability, T/C [10] 32.3% | viability, T/C [11] 19.5% | viability, T/C [12] 14.7% | viability, T/C [13] 65.2% | viability, T/C [14] 66.7% | viability, T/C [15] 56.9% | viability, T/C [16] 31.1% | viability, T/C [17] 17.1% | viability, T/C [18] 14.2% | viability, T/C [19] 71.7% | viability, T/C [20] 58.7% | viability, T/C [21] 57.1% | viability, T/C [22] 25.9% | viability, T/C [23] 12.5% | viability, T/C [24] 12% | viability, T/C [25] 61.6% | viability, T/C [26] 52.8% | viability, T/C [27] 43.2% | viability, T/C [28] 22.4% | viability, T/C [29] 12.5% | viability, T/C [30] 11.9% | viability, T/C [31] 64.8% | viability, T/C [32] 39.9% | viability, T/C [33] 41.1% | viability, T/C [34] 27% | viability, T/C [35] 17.2% | viability, T/C [36] 11.6%
423 nM: IC50 (second compound 0.1 µM)
157 nM: IC50 (second compound 3.16 µM)

COc1ccc([C@@H](O)c2cc(-c3ncnc4cc(N5CCOCC5)ccc34)c(F)cc2Cl)nn1 + Cc1[nH]c2ccc(F)cc2c1-c1nc2c3cccnc3c3ncccc3c2[nH]1
1960 nM: IC50 (second compound 3.16 µM)
inactive: viability, T/C [1] 93% | viability, T/C [2] 92.3% | viability, T/C [3] 73.7% | viability, T/C [4] 62.3% | viability, T/C [5] 56% | viability, T/C [6] 34.5% | viability, T/C [7] 88.6% | viability, T/C [8] 93% | viability, T/C [9] 69.7% | viability, T/C [10] 66.7% | viability, T/C [11] 47.1% | viability, T/C [12] 34.1% | viability, T/C [13] 82.3% | viability, T/C [14] 95.6% | viability, T/C [15] 83.2% | viability, T/C [16] 68.6% | viability, T/C [17] 54.3% | viability, T/C [18] 34.9% | viability, T/C [19] 88.4% | viability, T/C [20] 112% | viability, T/C [21] 88.5% | viability, T/C [22] 66.6% | viability, T/C [23] 58.4% | viability, T/C [24] 32.2% | viability, T/C [25] 86.1% | viability, T/C [26] 90.5% | viability, T/C [27] 75.9% | viability, T/C [28] 60.4% | viability, T/C [29] 43.3% | viability, T/C [30] 32.2% | viability, T/C [31] 99.4% | viability, T/C [32] 88.6% | viability, T/C [33] 74.9% | viability, T/C [34] 64.3% | viability, T/C [35] 54.6% | viability, T/C [36] 30.4%
2690 nM: IC50 (second compound 0.1 µM)
3670 nM: IC50 (second compound 1 µM)
3700 nM: IC50 (second compound 0.316 µM)
3520 nM: IC50 (second compound 0.0316 µM)
3080 nM: IC50 (second compound 10 µM)
